Data as given in patent US20060257875A1, “Affinity screening using "one-bead-one-compound" libraries” (Carlsberg A/S, priority 2003, published 2006).
Where “and” joins values, the source holds several entries; their conditions need not be identical. Identical values can stand only once. Entries after “also recorded” stand apart in the source; their conditions may differ. Like-named read-outs stand apart in the source and are kept apart here. Starred links: 1 amine or outer side, 2 acyl side, 3 side chain; linkers in the order of their positions; H or OH if unused. Non-standard residues stand in square brackets, D forms with d. Primed or numbered codes have the meaning given here. No end group written: not given here. Gua = 4-S-(Di-Boc-guanidino)-L-proline, CC(C)(C)OC(=O)N=C(NC(=O)OC(C)(C)C)N[C@H]1C[C@@H](C(=O)[*:2])N([*:1])C1; Pip′ = 4-phenyl-piperidine-4-carboxylic acid, O=C(C1(c2ccccc2)CCN([*:1])CC1)[*:2]; Abi = 3-amino-3-(biphenyl)-propanoic acid; Hyp = O=C(O)[C@@H]1C[C@@H](O)CN1; 3Pal = N[C@@H](Cc1cccnc1)C(=O)O; GlcNN = not defined here; Acm′ = not defined here; ManN = not defined here; ManS = not defined here

Columns and labels:
[1] = tested on: phenylephrine (PE)-treated myocyte proteins; assay: Solid phase screening of Library 1 with labeled myocyte proteins; bound proteins identified by on-bead digest and peptide mass fingerprinting; format: binding, neonatal Wistar rats; settings: Library 1 ligand on PEGA4000 bead; Phenylephrine Treated (Hyperthrophic) Myocytes
Description: (§1) Myocytes were prepared from 1 to 5 day old neonatal Wistar rats (University of Copenhagen) according to literature procedure described in Busk et al., 2002, Cardiovasc. Res., 56: 64-75 and plated into eight P10 culture plates at 6 million cells/plate.
(§2) Protein was extracted from myocytes prepared as described above for Example 9, using a new procedure modified from existing protocols, primarily: Arrott, et al., 1998, Anal Biochem. 258: 1-18. The media was removed from plates and adhered cells were treated for 10 minutes with ice cold phosphate buffer (0.25 mL, 10 mM, pH 7.5, augmented with 0.15 M NaCl 60 mM Benzamidine HCl, 5 mM EDTA, 10 μg/n E-64, 10 μg/mL Leu-peptin, 10 μg/mL Pepstatin A, and 1 mM PMSF). The cells were scraped off the plates and then lysed (on ice) in a sonicator (2×) using 10 seconds off/10 seconds on cycles.
(§3) The resulting suspension was augmented with CHAPS, DTT, and urea to a final concentration of CHAPS (1% w/v), DTT (5 mM), and urea (8 M). After 10-15 minutes on ice, the solution was centrifuged for 10 minutes at 15,000 rpm at 4° C. The supernatant was removed and protein content quantified using the NanoOrange Protein test (Molecular Probes, Eugene, Oreg.): Total protein recovered: 70.5 μg for PE-treated cells and 60 μg for basal cells.
(§4) Fluorescent dye Oregon Green 514 (OR) (Molecular Probes) was used to label the healthy/basal cells while Rhodamine Red (RR) (Molecular Probes) was used to label the PE-treated cells. The labeling procedures were carried out according to the manufacturer's protocol. The protein solutions (0.25 mL, 50.4 μg for PE cells and 0.25 mL, 42.8 μg for basal cells) were dialyzed against a solution of 10 mM phosphate buffer, 0.15 M NaCl, pH 7.5 and then 1 M NaHCO3 (0.025 mL) added to a final pH of 8.5. 10 μL of dye in dry DMF (10 mg/mL) was added and the sample stirred at room temperature for 2 hours. The protein solution was dialyzed extensively against 10 mM phosphate buffer, 0.15 M NaCl, pH 7.5, to remove excess dye.
(§5) Ligand library 1 (200 mg), prepared as described for Example 5, was transferred to a syringe fitted with a stop-valve and the ligand-beads were washed for 10 minutes (3×) with 10 mM phosphate buffer, pH 6.8, supplemented with 0.15 M NaCl, 1 mM Ca^2+, 1 mM Zn^2+, 1 mM Mn^2+, 1 mM Cu^2+, and 1 mM Mg^2+ (3 mL). The ligand-beads were treated with a 1% BSA solution for 30 minutes, then washed with buffer (1×). A mixture of labeled myocyte proteins, including both PE-induced protein (138 μL, 40 μg) and basal protein (167 μL, 40 μg) obtained as described above for Example 11, was prepared in 1.2 mL buffer, and added to the ligand library in the syringe. The proteins and ligand library were incubated at room temperature for 16 hours. The library was then washed with buffer for 5 minutes then with water for 3×5 minutes. The library was examined under a fluorescence microscope and brightly fluorescent red, green, and yellow beads (yellow indicative of both dyes red and green binding; the majority of the beads) were present, as well as unlabelled beads. The fluorescent beads were separated and retained for analysis.
(§6) The fluorescent ligand library beads containing bound protein obtained as described in Example 15 were sorted using a COPAS (250) NF Bead Sorter (Union Biometrica, Somerville, Mass.) equipped with a single flourescence emission. Beads emitting fluorescence of only one color contain proteins from one physical state, e.g. proteins expressed only in the PE-induced hypertrophic state (red) or proteins expressed only in the basal state (green). Since the instrument measures one fluorescence emission at a time, beads containing one type of color fluorescence were first sorted and then beads were resorted for emissions from the other fluorescence color. The library was first sorted such that all beads containing significant green fluorescence, basal proteins from healthy myocytes, were isolated. […]

[2] = tested on: cardiac myocytes; assay: Inhibition of DNA synthesis (cardiac hypertrophy) in cardiac myocytes treated with peptides (FIG. 3); format: cell-based
Description: The columns indicate average induction of DNA synthesis in cardiac myocytes treated with peptides. The Y-axis indicates fold induction (control basal=100%).
The importance of six ligands in cardiac hypertrophy was investigated by examining the effect of the ligand on the increase in protein synthesis (meaured by increase in DNA synthesis) in myocytes that had been treated with serum to induce a hypertrophic state (FIG. 3).

[3] = tested on: normal (basal) myocyte protein mixtures; assay: Solid phase screening of Library 1 with labeled myocyte proteins; bound proteins identified by on-bead digest and peptide mass fingerprinting; format: binding, neonatal Wistar rats; settings: Library 1 ligand on PEGA4000 bead; Normal Myocytes; proteins primarily present in basal cells
Description: as §1, §2, §3, §4, §5, §6

[4] = tested on: six protein mixture: Con A, P. sativum lectin, L. culinaris lectin, W. floribunda lectin, Glyceraldehyde 6-phosphate, bovine serum albumin; assay: Solid phase screening of Library 3 with labeled six protein mixture; affinity purification, gel electrophoresis and Edman degradation; format: binding; settings: for Identified Protein(s): Library 3 ligand on PEGA6000 resin
[5] = hypertrophied myocytes (treated with serum to induce a hypertrophic state)

Substance	Identified Protein(s) [1]	Identified Protein(s) [3]	further results
Abi-Phe-Abi-Phe-Che-Tyr	Cathepsin E (gi 4503145); Ribosomal proteins (60s L; also recorded: series) (gi 20826861)		
Abi-Thr-Hyp-Hyp-His-	Phosphofructokinase (gi 7331123); Selenium binding pro-; also recorded: tein (gi 8848341/6677907); (Serine arginine rich pro-; also recorded: tein kinase (LA); Guanylate kinase (gi 20986250) (LA),; also recorded: (M); SPTR (gi 12842823) (M, Actin interacting protein		extent of DNA synthesis [2, 5]: reduced the extent of DNA synthesis; extent of DNA synthesis ([2]; normal myocytes): reduced the extent of DNA synthesis
FTYFAK		Serine/threonine Protein kinase (gi 5730055); Carbonic; also recorded: anhydrase VII (gi 10304383)	
GlcNN-Trp-Phe-Asp-Trp-Pro ([GlcNN]WFDWP; reading uncertain)			selectivity of binding among the lectins [4]: binds only to Con A and not to the other lectins; Identified Protein(s) ([4]; six protein mixture): Con A
GlcNN-Val-GlcNN-His-ManS-Gly			Identified Protein(s) ([4]; six protein mixture): Con A, P. sativum; also recorded: lectin
HTWGYW			Identified Protein(s) ([4]; six protein mixture): Con A; selectivity of binding among the lectins ([4]; six protein mixture): binds selectively to Con A
His-Tyr-Pip-Thr-Acm-Abi (HY[Pip′]T[Acm′][Abi]; reading uncertain; also: printed as His-Tyr-Pip-Thr-Acm-Abi)		Chain C P27 cyclin A-CDK2 complex: (Cyclin A?) (gi and 2392395); Hypothetical protein XP_154035.	
Lys-Met-Hyp-Trp-Tyr-Gun (KM[Hyp]WY[Gua])	Cell surface glycoprotein (gi 23603627); Hypothetical; also recorded: protein (XP-179829; gi 14720727)		
ManN-Phe-Trp-Ser-Lys-His ([ManN]FWSKH; reading uncertain; also: printed as ManN-Phe-Trp-Ser-Lys-His)			Identified Protein(s) ([4]; six protein mixture): Con A, P. sativum; also recorded: lectin
ManS-Gly-ManS-Asp-Asn-Ala ([ManS]G[ManS]DNA; reading uncertain; also: printed as ManS-Gly-ManS-Asp-Asn-Ala)			Identified Protein(s) ([4]; six protein mixture): Con A, P. sativum; also recorded: lectin
Pal-Gly-Abi-Hyp-Pya-Trp	NAS putative unclassified (gi 12861084); Putative Zn; also recorded: finger protein 64 (gi 12849329)		
Phe-Abi-Pal-Hyp-Thr-Hyp	Zinc finger associated protein gi 20304091; Ribosomal; also recorded: proteins 40S L series (gi 206736/133023);		
Phe-Gua-Asp-Abi-His-Aze		Hypothetical protein XP_043250 (gi 14773490)	
Phe-Gua-Pal-Tyr-Gua-Tyr	Glucose-6-Phosphatase (gi 6679893/15488608); Succinate; also recorded: dehydrogenase; ARL-interacting protein (gi 4927202); also recorded: (M); SPTR (gi 12834839) (M), Nucleic acid binding		extent of DNA synthesis [2, 5]: reduced the extent of DNA synthesis; extent of DNA synthesis ([2]; normal myocytes): reduced the extent of DNA synthesis
Phe-Phe-Phe-Pip-Aze-Gua		Phosphatidyl choline-sterol acyl transferase (400167;; also recorded: LCAT-PIG_9)	
Phe-Ppy-Acc-Ala-Ppy-Hpy		Hypothetical proteins; Troponin T gi 547047;; (Phospho-; also recorded: lipase C (MA); Phosphatidyicholine sterol acyl trans-; also recorded: ferase (400167;LCAT-PIG_9))	
Phe-Thr-Pya-Pip-Asp-His (FT[3Pal][Pip′]DH)		(Sodium channel (gi 18591322) (M); Chloride channel (gi and 6978663/4502867) (M)) Troponin I (gi 1351298);; Zn Fin- and ger protein (gi 18591322) (MA); SPTR (peroxisomal Ca and dependent solute carrier (putative) (gi 12853685); and Beta-2 adnergic receptor (gi 12699028)	
Pip-Pal-Pal-Phe-Pya-Pip		544086) (M); Ribosomal proteins (60s) (gi 21426891); and SPTR (gi 20837095) (M) and Ca2+/Calmodulin activated Myosin light chain kinase (gi and 284660) (LA, MA); Regulator of G-Protein Signalling and (RGS14) variant (gi 2708808) ATP Synthase component and (subunit e) (gi 258788) (M);; Cytochrome P450 (gi	
Pya-Gua-Abi-Asp-Abi-Tyr	SPTR (gi 20869775) (M); Ribosomal proteins (60s) (gi and 20875941/6677773); (Calcium channel (gi 3202010) (M): and Slo channel protein isoform (gi 3644046) (M); Potassium and conductance calcium activated channel (gi 6754436 and NP_034740) (M);; Regulator of G-protein signalling 8 and (gi 9507049).		extent of DNA synthesis [2, 5]: reduced the extent of DNA synthesis; extent of DNA synthesis ([2]; normal myocytes): reduced the extent of DNA synthesis
Pya-Gua-Pip-Acc-Phe-Pip		NADH dehydrogenase; ATP binding component (gi 18598538); also recorded: (M); Myosin heavy polypeptide 9 (gi 13543854); Histone; also recorded: associated proteins (gi 20893760) (M)	
Pya-Hyp-Hyp-Phe-Acm-Tyr		Troponin T (gi 547047); Ca2+/Calmodulin activated My-; also recorded: osin light chain kinase (gi 284660) (LA, MA); cGMP-; also recorded: dependent protein kinase (gi 284660) (LA)	
